One substance from patent US11384379B2, “Method for producing a protein and disaccharide using a Talaromyces cellulolyticus” (AJINOMOTO CO., INC., priority 2017, dated 2022) can be followed below.

Assay [1] relates to T. cellulolyticus strains F09pyr+ and F09Δgh1-2. The experiment in a line: Halo assay for secretory cellulase by various beta-linked glucose oligosaccharides (CMC minimal medium, Congo Red). In kind it is cell-based, Talaromyces cellulolyticus. The following applies: 30° C. for 36 hours. The procedure: The strains F09pyr+ and F09Δgh1-2 were each grown on the minimal medium containing glucose as the carbon source for 3 days. […] After the culture, a Congo Red solution obtained by mixing 50 mM sodium phosphate buffer (pH 7.0) and 2 mg/ml Congo Red (Nacalai Tesque) in a volume ratio of 10:1 was added to the plate so that the Congo Red solution covered the entire plate, and the plate was left to stand for 30 minutes at a room temperature. Then, the Congo Red solution on the plate was removed, and sodium phosphate buffer (50 mM, pH 7.0) was added to the plate so that the sodium phosphate buffer covered the entire plate. The plate was again left to stand for 30 minutes at a room temperature. Then, the sodium phosphate buffer on the plate was removed, the surface of the plate was dried lightly, and observation of halo was carried out.

Assay [2] has as its system T. cellulolyticus strain F09ΔcreA. The experiment in a line: Cellulase production fed-batch culture using gentiobiose, filter paper degradation activity. To be noted: carbon source other than glucose in the feed solution, compared with cellobiose; 72 hours. The assay is classed as cell-based, Talaromyces cellulolyticus.
Method: The T. cellulolyticus strains F09ΔcreA and F09Δgh1-2ΔcreA were each inoculated into PD medium, and cultured at 30° C. One agar disk excised from around the edge of a formed colony was inoculated into 20 mL of a liquid culture medium containing 20 g/L glucose, 24 g/L KH2PO4, 5 g/L (NH4)2SO4, 2 g/L Urea, 1.2 g/L MgSO4-7H2O, 0.01 g/L ZnSO4-7H2O, 0.01 g/L MnSO4-5H2O, 0.01 g/L CuSO4-5H2O, 1 g/L Corn steep liquor (C4648, SIGMA), and 1 g/L Tween 80, and gyratory culture (220 rpm) was carried out at 30° C. for 5 days as a pre-culture. […]
The filter paper degradation activity (FPU/ml) of the obtained enzyme solutions was measured according to the following procedure, and the yield of the activity per carbon source was calculated on the basis of the consumption amount of sugar during the cultures by which the respective enzyme solutions were obtained.
To a 100-μl aliquot of a citrate buffer (50 mM, pH 5.0) containing a filter paper (Whatman No. 1, GE Healthcare) cut to 6 mm×10 mm, 50 μl of an appropriately diluted sample were added, and a reaction was carried out at 50° C. for 1 hour. […] Then, the absorbance at 540 nm of the supernatant was measured, and the value of the blank was subtracted therefrom, to calculate an increase in absorbance. […]
Assay [3] has as its system T. cellulolyticus strains Y-94, W363Frep, W449Frep, and C267Prep. The experiment in a line: Halo assay of strains Y-94, W363Frep, W449Frep, C267Prep with or without gentiobiose. In kind it is cell-based, Talaromyces cellulolyticus. The following applies: 1 mM gentiobiose in combination with W363F, W449F or C267P mutation in the gh1-2 gene; 5 days. The procedure: (§1) The strains Y-94, W363Frep, W449Frep, and C267Prep were each grown on the minimal medium containing CMC as the carbon source and on the minimal medium containing CMC as the carbon source and 1 mM gentiobiosefor 5 days according to the procedure described in Example (1-4). After the culture, a Congo Red solution obtained by mixing 50 mM sodium phosphate buffer (pH 7.0) and 2 mg/ml Congo Red (Nacalai Tesque) in a volume ratio of 10:1 was added to the plate so that the Congo Red solution covered the whole of the plate, and the plate was left to stand for 30 minutes at a room temperature. Then, the Congo Red solution on the plate was removed, and sodium phosphate buffer (50 mM, pH 7.0) was added to the plate so that the sodium phosphate buffer covered the whole of the plate. The plate was again left to stand for 30 minutes at a room temperature. Then, the sodium phosphate buffer on the plate was removed, the surface of the plate was dried lightly, and the diameter and width of the visualized halo were measured.

For assay [4], the system named is T. cellulolyticus strains F09pyrF+, F09Δgh1-2, F09Δbgl3A, and F09Δgh1-2Δbgl3A. The assay is described as follows: Plate halo assay of double deficient strain of GH1-2 and BGL3A with or without gentiobiose. The assay is classed as cell-based, Talaromyces cellulolyticus. To be noted: 1 mM gentiobiose in combination with double disruption of the gh1-2 gene and the bgl3A gene; 5 days. The procedure:
as §1, with “F09pyrF+” for “Y-94, W363Frep, W449Frep,”, “F09Δgh1-2 constructed in Example (1-1), the strain F09Δbgl3A constructed in Example (5-1), and the strain F09Δgh1-2Δbgl3A constructed in Example (7-1)” for “C267Prep”

The test system of assay [5] is HSA expressing strain derived from the T. cellulolyticus strain F09ΔyscB. The following applies: feeding solution Gentiobiose 80 g/L vs Cellobiose 80 g/L; 45 hours.
Method: The HSA expressing strain derived from the T. cellulolyticus strain F09ΔyscB was inoculated into PD medium, and cultured at 30° C. One agar disk excised from around the edge of a formed colony was inoculated into 20 mL of a liquid culture medium containing 20 g/L glucose, 24 g/L KH2PO4, 5 g/L (NH4)2SO4, 2 g/L Urea, 1.2 g/L MgSO4-7H2O, 0.01 g/L ZnSO4-7H2O, 0.01 g/L MnSO4-5H2O, 0.01 g/L CuSO4-5H2O, 1 g/L Corn steep liquor (C4648, SIGMA), and 1 g/L Tween 80, and gyratory culture (220 rpm) was carried out at 30° C. for 5 days as a pre-culture. Then, 15 mL of the pre-culture broth was inoculated into 300 mL of a liquid culture medium containing 15 g/L glucose, 12 g/L KH2PO4, 10 g/L (NH4)2SO4, 1.2 g/L MgSO4-7H2O, 0.01 g/L ZnSO4-7H2O, 0.01 g/L MnSO4-5H2O, 0.01 g/L CuSO4-5H2O, 5 g/L Corn steep liquor, 1 g/L Tween 80, and 0.5 mL/L DISFOAM GD (NOF CORPORATION) in a jar fermenter, and fed-batch culture was carried out for 45 hours at a culture temperature of 30° C. and an aeration volume of 1/2 vvm, while controlling the dissolved oxygen concentration to be 5% or higher of the saturated oxygen concentration by stirring and controlling the pH to be 5 with using ammonia gas. […]
HSA was quantified by ELISA using Albumin ELISA Quantitation Kit, Human (Bethyl Laboratories, inc.).

Turning to gentiobiose, the “complementation of the decrease in the ability for secretory production of cellulase due to deletion of the gh1-2 gene (halo)” value in assay [1] (0.01 mM in CMC minimal medium) is given as “complemented the decrease in the ability for secretory production of cellulase more strongly than other beta-linked glucose oligosaccharides”; in assay [1] (1 mM in CMC minimal medium) it was “strongly complements the decrease in the ability for secretory production of cellulase”. For the same substance, the “efficiency of cellulase production (filter paper degradation activity, yield per carbon source)” value in assay [2] was “cellulase production with higher efficiency”. Moreover, in assay [3], the “secretory production of cellulase (diameter and width of degradation halo)” value is given as “secretory production of cellulase is synergistically improved”. Moreover, the “secretory production of cellulase (width of degradation halo)” value in assay [4] is given as “secretory production of cellulase is synergistically improved”. Also, in assay [5], the “secretory production amount of HSA” value is given as “greater in the case of feeding gentiobiose than in the case of feeding cellobiose”.
